Test results published in PubChem BioAssay (NCI).
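Step 1: Grow cells in 96-well plates. Step 2: Expose to compound for 48 hours at 5 concentrations. Step 3: Interpolate endpoints linearly; if unreached, use highest concentration. GI50 is the concentration that inhibits growth by half. TGI denotes the concentration required for complete inhibition of growth.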

Key:
Assay in all cases: DTP human tumour cell line panel, 48 h
[1] = system: 786-0 renal
[2] = system: A498 renal
[3] = system: A549 NSCLC
[4] = system: ACHN renal
[5] = system: BT-549 breast
[6] = system: CAKI-1 renal
[7] = system: CCRF-CEM leukemia
[8] = system: COLO 205 colon
[9] = system: DU-145 prostate
[10] = system: EKVX NSCLC
[11] = system: HCC-2998 colon
[12] = system: HCT-116 colon
[13] = system: HCT-15 colon
[14] = system: HL-60(TB) leukemia
[15] = system: HOP-62 NSCLC
[16] = system: HOP-92 NSCLC
[17] = system: HS 578T breast
[18] = system: HT29 colon
[19] = system: IGROV1 ovarian
[20] = system: K-562 leukemia
[21] = system: KM12 colon
[22] = system: LOX IMVI melanoma
[23] = system: M14 melanoma
[24] = system: MALME-3M melanoma
[25] = system: MCF7 breast
[26] = system: MDA-MB-231 breast
[27] = system: MDA-MB-435
[28] = system: NCI-H226 lung
[29] = system: NCI-H23 lung
[30] = system: NCI-H460 lung
[31] = system: NCI-H522 lung
[32] = system: NCI/ADR-RES ovarian
[33] = system: OVCAR-4 ovarian
[34] = system: OVCAR-5 ovarian
[35] = system: OVCAR-8 ovarian
[36] = system: PC-3 prostate
[37] = system: RPMI-8226 leukemia
[38] = system: RXF 393 renal
[39] = system: SF-268 CNS
[40] = system: SF-295 CNS
[41] = system: SF-539 CNS
[42] = system: SK-MEL-2 melanoma
[43] = system: SK-MEL-28 melanoma
[44] = system: SK-MEL-5 melanoma
[45] = system: SK-OV-3 ovarian
[46] = system: SN12C renal
[47] = system: SNB-19 CNS
[48] = system: SNB-75 CNS
[49] = system: SW-620 colon
[50] = system: T-47D breast
[51] = system: TK-10 renal
[52] = system: U251 CNS
[53] = system: UACC-257 melanoma
[54] = system: UACC-62 melanoma
[55] = system: UO-31 renal
[56] = system: MOLT-4 leukemia
[57] = system: OVCAR-3 ovarian
[58] = system: SR leukemia

In the case of `C#Cc1nc(/C=C/C(=O)NO)cs1`, the GI50 [1] is reported as 211 nM, the TGI [1] is reported as 427 nM and the GI50 [2] is reported as 1800 nM. It also gave a TGI [2] of 3660 nM, a GI50 [3] of 3890 nM and a TGI [3] of 22500 nM. For the same molecule, the GI50 [4] was 2510 nM, the TGI [4] was 7100 nM and the GI50 [5] was 2630 nM. The TGI [5] was 6740 nM, the GI50 [6] was 1720 nM and the TGI [6] was 3240 nM. It also gave a GI50 [7] of 414 nM, a TGI [7] of 1950 nM and a GI50 [8] of 4170 nM. For the same molecule, the TGI [8] was 14900 nM, the GI50 [9] was 2010 nM and the TGI [9] was 6160 nM. It also gave a GI50 [10] of 2250 nM, a TGI [10] of 5070 nM and a GI50 [11] of 12700 nM. For the same molecule, the TGI [11] was 26100 nM, the GI50 [12] was 1560 nM and the TGI [12] was 3580 nM. For the same molecule, the GI50 [13] was 2980 nM, the TGI [13] was 14900 nM and the GI50 [14] was 1660 nM. It also gave a TGI [14] of 4090 nM, a GI50 [15] of 2760 nM and a TGI [15] of 15000 nM. For the same molecule, the GI50 [16] was 1430 nM, the TGI [16] was 3000 nM and the GI50 [17] was 2040 nM. The TGI [17] was 7620 nM, the GI50 [18] was 2340 nM and the TGI [18] was 5700 nM. The GI50 [19] was 501 nM, the TGI [19] was 1920 nM and the GI50 [20] was 3010 nM. It also gave a TGI [20] of 12800 nM, a GI50 [21] of 3510 nM and a TGI [21] of 14500 nM. For the same molecule, the GI50 [22] was 171 nM, the TGI [22] was 326 nM and the GI50 [23] was 3150 nM. The TGI [23] was 15000 nM, the GI50 [24] was 1290 nM and the TGI [24] was 2850 nM. The GI50 [25] was 3270 nM, the TGI [25] was 19600 nM and the GI50 [26] was 2880 nM. The TGI [26] was 7820 nM, the GI50 [27] was 3700 nM and the TGI [27] was 15900 nM. For the same molecule, the GI50 [28] was 10400 nM, the TGI [28] was 36600 nM and the GI50 [29] was 1300 nM. It also gave a TGI [29] of 2710 nM, a GI50 [30] of 3150 nM and a TGI [30] of 19400 nM. It also gave a GI50 [31] of 211 nM, a TGI [31] of 440 nM and a GI50 [32] of 1150 nM. For the same molecule, the TGI [32] was 34100 nM, the GI50 [33] was 1910 nM and the TGI [33] was 4280 nM. It also gave a GI50 [34] of 2340 nM, a TGI [34] of 6110 nM and a GI50 [35] of 2240 nM. The TGI [35] was 11500 nM, the GI50 [36] was 4520 nM and the TGI [36] was 23700 nM. It also gave a GI50 [37] of 2030 nM, a TGI [37] of 7650 nM and a GI50 [38] of 1250 nM. The TGI [38] was 2910 nM, the GI50 [39] was 2240 nM and the TGI [39] was 5080 nM. The GI50 [40] was 1910 nM, the TGI [40] was 3560 nM and the GI50 [41] was 1620 nM. For the same molecule, the TGI [41] was 3120 nM, the GI50 [42] was 4580 nM and the TGI [42] was 17600 nM. It also gave a GI50 [43] of 4020 nM, a TGI [43] of 33700 nM and a GI50 [44] of 3600 nM. It also gave a TGI [44] of 14000 nM, a GI50 [45] of 3320 nM and a TGI [45] of 13400 nM. For the same molecule, the GI50 [46] was 5890 nM, the TGI [46] was 85000 nM and the GI50 [47] was 6800 nM. For the same molecule, the TGI [47] was 24300 nM, the GI50 [48] was 1110 nM and the TGI [48] was 2560 nM. For the same molecule, the GI50 [49] was 2070 nM, the TGI [49] was 5080 nM and the GI50 [50] was 2170 nM. The TGI [50] was 7440 nM, the GI50 [51] was 2150 nM and the TGI [51] was 8100 nM. For the same molecule, the GI50 [52] was 2440 nM, the TGI [52] was 6840 nM and the GI50 [53] was 1550 nM. For the same molecule, the TGI [53] was 11000 nM, the GI50 [54] was 2140 nM and the TGI [54] was 8560 nM. For the same molecule, the GI50 [55] was 182 nM and the TGI [55] was 341 nM.

In the case of `CC1=CC(=O)CC(C)(C)[C@@]1(O)/C=C/C(C)=C\C(=O)O`, the GI50 [2] is reported as 115 nM, the TGI [2] is reported as 374 nM and the GI50 [3] is reported as 408 nM. The TGI [3] was 3500 nM, the GI50 [4] was 489 nM and the TGI [4] was 2380 nM. The GI50 [7] was 196 nM, the TGI [7] was > 50000 nM and the GI50 [8] was 204 nM. The TGI [8] was 950 nM, the GI50 [10] was 250 nM and the TGI [10] was 2290 nM. The GI50 [11] was 139 nM, the TGI [11] was 430 nM and the GI50 [13] was 153 nM. It also gave a TGI [13] of 777 nM, a GI50 [14] of 127 nM and a TGI [14] of 309 nM. For the same molecule, the GI50 [15] was 159 nM, the TGI [15] was 1050 nM and the GI50 [16] was 566 nM. It also gave a TGI [16] of 2980 nM, a GI50 [17] of 209 nM and a TGI [17] of 1570 nM. It also gave a GI50 [18] of 157 nM, a TGI [18] of 585 nM and a GI50 [19] of 157 nM. For the same molecule, the TGI [19] was 946 nM, the GI50 [20] was 164 nM and the TGI [20] was > 50000 nM. For the same molecule, the GI50 [21] was 210 nM, the TGI [21] was 1560 nM and the GI50 [22] was 129 nM. The TGI [22] was 432 nM, the GI50 [24] was 104 nM and the TGI [24] was 329 nM. The GI50 [25] was 165 nM, the TGI [25] was 1360 nM and the GI50 [26] was 1140 nM. The TGI [26] was 3550 nM, the GI50 [27] was 182 nM and the TGI [27] was 738 nM. The GI50 [56] was 152 nM, the TGI [56] was > 50000 nM and the GI50 [28] was 148 nM. It also gave a TGI [28] of 499 nM, a GI50 [29] of 376 nM and a TGI [29] of 2230 nM. For the same molecule, the GI50 [30] was 132 nM, the TGI [30] was 336 nM and the GI50 [31] was 115 nM. It also gave a TGI [31] of 359 nM, a GI50 [32] of 1010 nM and a TGI [32] of 3760 nM. For the same molecule, the GI50 [57] was 148 nM, the TGI [57] was 478 nM and the GI50 [33] was 131 nM. The TGI [33] was 464 nM, the GI50 [34] was 840 nM and the TGI [34] was 2980 nM. The GI50 [35] was 527 nM, the TGI [35] was 3150 nM and the GI50 [36] was 347 nM. The TGI [36] was 3460 nM, the GI50 [37] was 174 nM and the TGI [37] was 644 nM. The GI50 [38] was 114 nM, the TGI [38] was 327 nM and the GI50 [39] was 793 nM. The TGI [39] was 2820 nM, the GI50 [40] was 749 nM and the TGI [40] was 2320 nM. The GI50 [41] was 206 nM, the TGI [41] was 1290 nM and the GI50 [42] was 923 nM. It also gave a TGI [42] of 2310 nM, a GI50 [43] of 172 nM and a TGI [43] of 669 nM. For the same molecule, the GI50 [44] was 111 nM, the TGI [44] was 252 nM and the GI50 [45] was 284 nM. It also gave a TGI [45] of 2220 nM, a GI50 [46] of 894 nM and a TGI [46] of 3900 nM. It also gave a GI50 [47] of 254 nM, a TGI [47] of 2280 nM and a GI50 [48] of 517 nM. The TGI [48] was 1130 nM, the GI50 [58] was 155 nM and the TGI [58] was > 50000 nM. It also gave a GI50 [49] of 285 nM, a TGI [49] of 2200 nM and a GI50 [50] of 340 nM. It also gave a TGI [50] of 2220 nM, a GI50 [51] of 471 nM and a TGI [51] of 2740 nM. For the same molecule, the GI50 [52] was 224 nM, the TGI [52] was 2260 nM and the GI50 [53] was 534 nM. The TGI [53] was 2520 nM, the GI50 [54] was 545 nM and the TGI [54] was 1370 nM. It also gave a GI50 [55] of 608 nM and a TGI [55] of 2300 nM.
